Laboratory results taken from PubChem BioAssay (NCI).
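Grown in 96-well plates, cells were treated for 48 hours with each compound at five concentrations. Insufficient inhibition: endpoint recorded as highest concentration tested. TGI is the concentration that stops growth completely.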

Key:
Assay in all cases: NCI tumour cell line growth inhibition, 48 h
U251 CNS = system: U251 CNS
786-0 renal = system: 786-0 renal
M14 melanoma = system: M14 melanoma
OVCAR-3 ovarian = system: OVCAR-3 ovarian
SR leukemia = system: SR leukemia
SK-MEL-2 melanoma = system: SK-MEL-2 melanoma
SNB-78 CNS = system: SNB-78 CNS
SK-MEL-28 melanoma = system: SK-MEL-28 melanoma
CCRF-CEM leukemia = system: CCRF-CEM leukemia
SF-539 CNS = system: SF-539 CNS
TK-10 renal = system: TK-10 renal
HCC-2998 colon = system: HCC-2998 colon
MOLT-4 leukemia = system: MOLT-4 leukemia
SW-620 colon = system: SW-620 colon
OVCAR-8 ovarian = system: OVCAR-8 ovarian
MALME-3M melanoma = system: MALME-3M melanoma
NCI-H522 lung = system: NCI-H522 lung
ACHN renal = system: ACHN renal
RXF-631 renal = system: RXF-631 renal
KM12 colon = system: KM12 colon
SK-MEL-5 melanoma = system: SK-MEL-5 melanoma
COLO 205 colon = system: COLO 205 colon
K-562 leukemia = system: K-562 leukemia
UO-31 renal = system: UO-31 renal
DLD-1 colon = system: DLD-1 colon
HCT-116 colon = system: HCT-116 colon
KM20L2 colon = system: KM20L2 colon
M19-MEL melanoma = system: M19-MEL melanoma
A498 renal = system: A498 renal
DMS 273 small cell lung = system: DMS 273 small cell lung
HCT-15 colon = system: HCT-15 colon
SK-OV-3 ovarian = system: SK-OV-3 ovarian
NCI-H460 lung = system: NCI-H460 lung
A549 NSCLC = system: A549 NSCLC
SNB-19 CNS = system: SNB-19 CNS
HOP-62 NSCLC = system: HOP-62 NSCLC
SN12C renal = system: SN12C renal
HT29 colon = system: HT29 colon
NCI-H226 lung = system: NCI-H226 lung
LOX IMVI melanoma = system: LOX IMVI melanoma
EKVX NSCLC = system: EKVX NSCLC
LXFL 529 NSCLC = system: LXFL 529 NSCLC
RPMI-8226 leukemia = system: RPMI-8226 leukemia
OVCAR-5 ovarian = system: OVCAR-5 ovarian
IGROV1 ovarian = system: IGROV1 ovarian
UACC-62 melanoma = system: UACC-62 melanoma
SNB-75 CNS = system: SNB-75 CNS
HOP-18 NSCLC = system: HOP-18 NSCLC
NCI-H23 lung = system: NCI-H23 lung
OVCAR-4 ovarian = system: OVCAR-4 ovarian
RXF 393 renal = system: RXF 393 renal
SF-268 CNS = system: SF-268 CNS
SF-295 CNS = system: SF-295 CNS
DMS 114 small cell lung = system: DMS 114 small cell lung
HOP-92 NSCLC = system: HOP-92 NSCLC
HL-60(TB) leukemia = system: HL-60(TB) leukemia
P388/ADR leukemia = system: P388/ADR leukemia
NCI/ADR-RES ovarian = system: NCI/ADR-RES ovarian
P388 leukemia = system: P388 leukemia
MCF7 breast = system: MCF7 breast
SN12K1 renal = system: SN12K1 renal
UACC-257 melanoma = system: UACC-257 melanoma

COc1cc(NCC(C#N)C#N)ccc1N=Nc1ccc(Cl)cc1
TGI (U251 CNS): 37 µM | TGI (786-0 renal): 48.8 µM | TGI (M14 melanoma): 33.5 µM | TGI (OVCAR-3 ovarian): 38.4 µM | TGI (SR leukemia): 35.9 µM | TGI (SK-MEL-2 melanoma): 46.9 µM | TGI (SNB-78 CNS): 98.8 µM | TGI (SK-MEL-28 melanoma): 80.1 µM | TGI (CCRF-CEM leukemia): 61.9 µM | TGI (SF-539 CNS): 51.6 µM | TGI (TK-10 renal): 73 µM | TGI (HCC-2998 colon): 35.1 µM | TGI (MOLT-4 leukemia): 39.8 µM | TGI (SW-620 colon): 41.9 µM | TGI (OVCAR-8 ovarian): > 100 µM | TGI (MALME-3M melanoma): 71.4 µM | TGI (NCI-H522 lung): 31.9 µM | TGI (ACHN renal): > 100 µM | TGI (RXF-631 renal): > 100 µM | TGI (KM12 colon): 33.4 µM | TGI (SK-MEL-5 melanoma): 45.9 µM | TGI (COLO 205 colon): 31.7 µM | TGI (K-562 leukemia): 50.5 µM | TGI (UO-31 renal): 52.5 µM | TGI (DLD-1 colon): 85.4 µM | TGI (HCT-116 colon): 62.2 µM | TGI (KM20L2 colon): 29.3 µM | TGI (M19-MEL melanoma): 55.9 µM | TGI (A498 renal): > 100 µM | TGI (DMS 273 small cell lung): 41.4 µM | TGI (HCT-15 colon): 47.4 µM | TGI (SK-OV-3 ovarian): 83.8 µM | TGI (NCI-H460 lung): 52.9 µM | TGI (A549 NSCLC): > 100 µM | TGI (SNB-19 CNS): 61.6 µM | TGI (HOP-62 NSCLC): 36.4 µM | TGI (SN12C renal): > 100 µM | TGI (HT29 colon): 30.5 µM | TGI (NCI-H226 lung): > 100 µM | TGI (LOX IMVI melanoma): 36.1 µM | TGI (EKVX NSCLC): 68.5 µM | TGI (LXFL 529 NSCLC): 51.7 µM | TGI (RPMI-8226 leukemia): 92.3 µM | TGI (OVCAR-5 ovarian): 44.4 µM | TGI (IGROV1 ovarian): 71.7 µM | TGI (UACC-62 melanoma): 23.8 µM | TGI (SNB-75 CNS): 90.1 µM | TGI (HOP-18 NSCLC): 39.7 µM | TGI (NCI-H23 lung): 65.4 µM | TGI (OVCAR-4 ovarian): > 100 µM | TGI (RXF 393 renal): 79 µM | TGI (SF-268 CNS): > 100 µM | TGI (SF-295 CNS): 51.3 µM | TGI (DMS 114 small cell lung): 48.2 µM

CCC(=O)OC[n+]1ccc2c(C)c3[nH]c4ccccc4c3c(C)c2c1
TGI (OVCAR-3 ovarian): 2.68 µM | TGI (SR leukemia): 0.553 µM | TGI (CCRF-CEM leukemia): 2.68 µM | TGI (TK-10 renal): 3.18 µM | TGI (MOLT-4 leukemia): 0.725 µM | TGI (ACHN renal): 1.76 µM | TGI (RXF-631 renal): 1.91 µM | TGI (SK-MEL-5 melanoma): 2.51 µM | TGI (COLO 205 colon): 1.55 µM | TGI (HOP-92 NSCLC): 2.34 µM | TGI (KM20L2 colon): 2.3 µM | TGI (M19-MEL melanoma): 2 µM | TGI (HL-60(TB) leukemia): 6.18 µM | TGI (HT29 colon): 2.36 µM | TGI (LXFL 529 NSCLC): 1.78 µM | TGI (RPMI-8226 leukemia): 2.2 µM | TGI (OVCAR-5 ovarian): 1.91 µM | TGI (SNB-75 CNS): 2.55 µM | TGI (HOP-18 NSCLC): 0.701 µM | TGI (SF-295 CNS): 1.88 µM | TGI (DMS 114 small cell lung): 1.95 µM

O=C1C=C(C2OC(CO)C(O)C2O)C(=O)N1 (stereo not given)
TGI (U251 CNS): > 100 µM | TGI (OVCAR-3 ovarian): > 100 µM | TGI (SK-MEL-2 melanoma): > 100 µM | TGI (SNB-78 CNS): > 100 µM | TGI (SK-MEL-28 melanoma): > 100 µM | TGI (CCRF-CEM leukemia): > 89.5 µM | TGI (SF-539 CNS): > 100 µM | TGI (HCC-2998 colon): > 100 µM | TGI (P388/ADR leukemia): 68.5 µM | TGI (MOLT-4 leukemia): > 100 µM | TGI (SW-620 colon): > 100 µM | TGI (OVCAR-8 ovarian): > 100 µM | TGI (MALME-3M melanoma): > 100 µM | TGI (NCI-H522 lung): 38.5 µM | TGI (NCI/ADR-RES ovarian): > 100 µM | TGI (KM12 colon): > 100 µM | TGI (SK-MEL-5 melanoma): > 100 µM | TGI (COLO 205 colon): > 100 µM | TGI (K-562 leukemia): > 100 µM | TGI (UO-31 renal): > 100 µM | TGI (DLD-1 colon): > 100 µM | TGI (HCT-116 colon): > 100 µM | TGI (P388 leukemia): 60.9 µM | TGI (HOP-92 NSCLC): > 100 µM | TGI (KM20L2 colon): > 100 µM | TGI (M19-MEL melanoma): > 100 µM | TGI (A498 renal): > 100 µM | TGI (HL-60(TB) leukemia): > 100 µM | TGI (DMS 273 small cell lung): > 100 µM | TGI (HCT-15 colon): > 100 µM | TGI (SK-OV-3 ovarian): > 100 µM | TGI (NCI-H460 lung): > 100 µM | TGI (A549 NSCLC): > 100 µM | TGI (SNB-19 CNS): > 100 µM | TGI (HOP-62 NSCLC): > 100 µM | TGI (SN12C renal): > 100 µM | TGI (HT29 colon): > 100 µM | TGI (MCF7 breast): > 100 µM | TGI (NCI-H226 lung): > 100 µM | TGI (LOX IMVI melanoma): > 100 µM | TGI (EKVX NSCLC): > 100 µM | TGI (RPMI-8226 leukemia): > 87.8 µM | TGI (OVCAR-5 ovarian): > 100 µM | TGI (IGROV1 ovarian): > 100 µM | TGI (UACC-62 melanoma): > 100 µM | TGI (SNB-75 CNS): > 100 µM | TGI (HOP-18 NSCLC): > 100 µM | TGI (NCI-H23 lung): > 100 µM | TGI (OVCAR-4 ovarian): > 100 µM | TGI (RXF 393 renal): > 100 µM | TGI (SF-268 CNS): > 100 µM | TGI (SN12K1 renal): > 100 µM | TGI (UACC-257 melanoma): > 100 µM | TGI (SF-295 CNS): > 100 µM | TGI (DMS 114 small cell lung): > 100 µM
